In patent US7405051B2, “Method of screening antiplatelet agents” (Astellas Pharma Inc., priority 2000, dated 2008):

Key:
[1] = biological target: HORK3 protein (human ADP receptor P2TAC) (Homo sapiens, UniProt Q9H244); test: [3H]-2MeSADP binding assay on membrane fraction of C6-15 cell expressing HORK3 protein; details: Scatchard analysis
Description: (§1) The C6-15 cells expressing the HORK3 protein prepared in Example 5 were taken and washed, and then suspended in 20 mmol/L Tris-HCl (pH7.4) containing 5 mmol/L EDTA and a protease inhibitor cocktail set (Complete™; manufactured by Boeringer Mannheim). The whole was homogenized by using a POLYTRON, and ultracentrifuged. The pellet was suspended in 50 mmol/L Tris-HCl (pH7.4) containing 1 mmol/L EDTA, 100 mmol/L NaCl, 0.1% BSA, and Complete™ to obtain a membrane fraction.
(§2) After [^3H]-2MeSADP (manufactured by Moravek Biochemical) was added to 20 μg of the membrane fraction as a final concentration of 0.25 to 50 nmol/L, and was incubated in 250 μL of 50 mmol/L Tris-HCl (pH7.4) containing 1 mmol/L EDTA, 100 mmol/L NaCl, 0.1% BSA, and Complete™ at room temperature for 1 hour, the whole was collected on a glass filter by using a cell harvester. A microscintillator was added to the glass filter, and then a total amount of binding to the membrane fraction was measured by using a liquid scintillation counter. Further, an amount of non-specific binding to the membrane fraction was measured by adding 2MeSADP (a final concentration=50 μmol/L) in the above assay.
A microscintillator was added to the glass filter, and then radioactivity was measured by using a liquid scintillation counter. Further, radioactivity was measured by not adding the compound and by adding 2MeSADP (a final concentration=10 μmol/L) in the above assay, as a total amount of binding and an amount of non-specific binding, respectively.

[2] = test system: membrane fraction of the host cell C6-15 not expressing the HORK3 protein; test: [3H]-2MeSADP binding to membrane fraction of host cell C6-15 not expressing HORK3 protein; design: species or system rat
Description: as §1
as §2, with “assay. […] In contrast, such a specific binding was not observed in the membrane fraction of the host cell C6-15 not expressing the HORK3 protein.” for “assay.”

Chain of HORK3 protein (human ADP receptor P2TAC) (Q9H244 whole entry): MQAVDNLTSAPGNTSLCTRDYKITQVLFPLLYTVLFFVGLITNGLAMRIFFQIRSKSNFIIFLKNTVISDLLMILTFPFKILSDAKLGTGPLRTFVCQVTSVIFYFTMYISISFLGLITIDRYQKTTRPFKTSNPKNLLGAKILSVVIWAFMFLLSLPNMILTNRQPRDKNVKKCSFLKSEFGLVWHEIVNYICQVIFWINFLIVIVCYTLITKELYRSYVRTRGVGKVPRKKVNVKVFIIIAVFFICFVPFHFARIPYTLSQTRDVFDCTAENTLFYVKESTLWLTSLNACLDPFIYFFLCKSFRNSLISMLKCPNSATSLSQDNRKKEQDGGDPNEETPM

- Kd ([1]; 0.25 to 50 nmol/L, room temperature 1 hour, read-out: dissociation constant Kd of binding to the membrane fraction): 0.27 nM
- maximum binding Bmax ([1]; membrane fraction of C6-15 cell expressing HORK3): 3.7 pmol/mg
SMILES: CSc1nc(N)c2ncn([C@@H]3O[C@H](COP(=O)(O)OP(=O)(O)O)[C@@H](O)[C@H]3O)c2n1 [[^3H]-2MeSADP, [^3H] 2-methylthio-ADP]
- specific binding to the membrane fraction [2]: not observed
